Measurements published in patent US11180657B2, “Polysulfonated fluorescence dyes” (ATTO-TEC GmbH, priority 2017, dated 2021).
Marks after values point to notes of the source that are not given here.

How the values were obtained:
Format in all cases: physicochemical
[1] = Absorption maximum of the dye
From the text: (§1) Examples of the compounds according to the invention are listed in Tables 2-6, where the structures as well as the absorption and fluorescence maxima are indicated. The spectra of selected compounds are shown FIGS. 5-18.

[2] = Fluorescence maximum of the dye
From the text: as §1

[3] = Lactone or pseudobase formation in aqueous weakly alkaline solution; conditions: aqueous weakly alkaline solutions; reversible
From the text: Normally such lactones are adequately stabilized only in aprotic solvents such as acetone or chloroform. In protic solvents the carboxyl group is deprotonated and a slightly more short-wave absorbing and fluorescent zwitterion is formed. In the exemplary compounds, however, colorless compounds are formed due to the strong electron attraction of the indicated substituents, due to internal ester formation and the associated interruption of the conjugated system. If the carboxyl group is not free but is present as an ester or tertiary amide, so-called pseudobases are formed, through nucleophilic attack (hydroxide ions etc.) at the central carbon atom, which is stronger positivized by the electron-attracting substituents, which pseudobases are likewise colorless due to the interruption of the conjugated system. Both reactions are reversible; by changing the pH value, the dielectric constant (“polarity”) and/or the capability of hydrogen bridge bonding (“proticity”), the dye can be restored. Therefore such compounds can in principle be used as probes for the properties of their direct environment: Depending on the milieu, the molecules are present in colorless or colored form. Associated therewith is also a sort of fluorogenicity, because the longwave fluorescence appears only in the dye form.

[4] = Fluorescence quencher property (dye itself not fluorescent)
From the text: A particular subgroup of the compounds according to the invention is fluorescence quenchers. These dyes are not fluorescent themselves, but can act as acceptors for the emission of fluorescent compounds. A widespread area of use of such quenchers is for instance the measurement of the geometry (distances, size, and arrangement of molecular groups) or the reactivity (enzyme activity, reaction speeds, etc.) using Förster resonance energy transfer (FRET). The fluorescence of the donor can only appear when the distance between donor and acceptor exceeds a critical value. Below this distance, the fluorescence of the donor is quenched by the acceptor (=quencher) which is not fluorescent by itself. An overview of the bioanalytical applications of the FRET technology is provided for example by A. Roda, M. Guardigli, E. Micheline, M. Mirasoli, Nanobioanalytical luminescence: Förster-type energy transfer methods, Anal. Bioanal. Chem. 393, 2009, 109-123.
Examples of quenchers according to the invention are compounds 14, 15, 16 and 17. These rhodamines represent a further development of the dyes designated as “violamines” because of their magenta-colored solutions, see for example H. E. Fierz-David, Künstliche Organische Farbstoffe [Artificial Organic Dyes], Springer-Verlag, Berlin, 1926, p. 276ff. However, also the structure of other dye classes may be modified in this way. Examples according to the invention include compounds 49, 50 and 51 from the class of carbopyronines.

SMILES | λfl ([2]; solvent PBS pH 7.4) | λabs ([1]; solvent PBS pH 7.4) | also measured
O=C(O)C1CCCN1C(=O)c1ccccc1-c1c2cc(S(=O)(=O)O)/c(=N/Cc3ccc(S(=O)(=O)O)cc3S(=O)(=O)O)cc-2oc2cc(NCc3ccc(S(=O)(=O)O)cc3S(=O)(=O)O)c(S(=O)(=O)O)cc12 (stereo not shown) [Compound 10] | 556^b nm | – | λabs ([1]; solvent water/acetonitrile 1:1): 534^c nm; formation of colorless lactone or pseudobase [3]: easily form a lactone or pseudobase
O=C(O)C1CCN(C(=O)c2ccccc2-c2c3cc(S(=O)(=O)O)/c(=N/Cc4ccc(S(=O)(=O)O)cc4S(=O)(=O)O)cc-3oc3cc(NCc4ccc(S(=O)(=O)O)cc4S(=O)(=O)O)c(S(=O)(=O)O)cc23)CC1 [Compound 11] | 550^b nm | – | λabs ([1]; solvent water/acetonitrile 1:1): 529^c nm; formation of colorless lactone or pseudobase [3]: easily form a lactone or pseudobase
O=C(O)c1ccccc1-c1c2cc/c(=N/c3ccc(S(=O)(=O)O)cc3)cc-2oc2cc(Nc3ccc(S(=O)(=O)O)cc3)ccc12 [Compound 14] | – | 560^b nm | fluorescence quencher (not fluorescent itself, acceptor for emission of fluorescent compounds) [4]: quenchers
O=C(O)c1ccccc1-c1c2cc(S(=O)(=O)O)/c(=N/c3ccc(S(=O)(=O)O)cc3)cc-2oc2cc(Nc3ccc(S(=O)(=O)O)cc3)c(S(=O)(=O)O)cc12 [Compound 15] | – | – | λabs ([1]; solvent water/acetonitrile 1:1): 558^c nm; fluorescence quencher (not fluorescent itself, acceptor for emission of fluorescent compounds) [4]: quenchers
CN(CCCC(=O)O)C(=O)c1ccccc1-c1c2cc(S(=O)(=O)O)/c(=N/c3ccc(S(=O)(=O)O)cc3)cc-2oc2cc(Nc3ccc(S(=O)(=O)O)cc3)c(S(=O)(=O)O)cc12 [Compound 16] | – | – | λabs ([1]; solvent water/acetonitrile 1:1): 566^c nm; fluorescence quencher (not fluorescent itself, acceptor for emission of fluorescent compounds) [4]: quenchers
CN(CCCC(=O)O)C(=O)c1ccccc1-c1c2cc/c(=N\c3ccc(S(=O)(=O)O)cc3)c(S(=O)(=O)O)c-2oc2c(S(=O)(=O)O)c(Nc3ccc(S(=O)(=O)O)cc3)ccc12 [Compound 17] | – | – | λabs ([1]; solvent water/acetonitrile 1:1): 555^c nm; fluorescence quencher (not fluorescent itself, acceptor for emission of fluorescent compounds) [4]: quenchers
CN(CCCC(=O)O)C(=O)c1ccccc1-c1c2cc(S(=O)(=O)O)/c(=N/CCc3ccc(S(=O)(=O)O)cc3)cc-2oc2cc(N)c(S(=O)(=O)O)cc12 [Compound 20] | 550^b nm | – | λabs ([1]; solvent water/acetonitrile 1:1): 528^c nm; formation of colorless lactone or pseudobase [3]: easily form a lactone or pseudobase
CC1(C)c2cc(Nc3ccc(S(=O)(=O)O)cc3)ccc2C(c2c(F)c(F)c(SCC(=O)O)c(F)c2F)=c2cc3c(cc21)=[N+](Cc1ccc(S(=O)(=O)O)cc1S(=O)(=O)O)CCC3 [Compound 49] | – | 648^b nm | fluorescence quencher (not fluorescent itself, acceptor for emission of fluorescent compounds) [4]: quenchers
CC1=CC(C)(C)[N+](Cc2ccc(S(=O)(=O)O)cc2S(=O)(=O)O)=c2cc3c(cc21)=C(c1c(F)c(F)c(SCC(=O)O)c(F)c1F)c1ccc(Nc2ccc(S(=O)(=O)O)cc2)cc1C3(C)C [Compound 50] | – | 669^b nm | fluorescence quencher (not fluorescent itself, acceptor for emission of fluorescent compounds) [4]: quenchers
CC1(C)c2cc(Nc3ccc(S(=O)(=O)O)cc3)ccc2C(c2c(F)c(F)c(SCC(=O)O)c(F)c2F)=c2cc3c(cc21)=[N+](Cc1ccc(S(=O)(=O)O)cc1S(=O)(=O)O)C(C)(C)CC3CS(=O)(=O)O (stereo not shown) [Compound 51] | – | 650^b nm | fluorescence quencher (not fluorescent itself, acceptor for emission of fluorescent compounds) [4]: quenchers
C[Si]1(C)c2cc3c(cc2C=c2cc4c(cc21)=[N+](Cc1ccc(S(=O)(=O)O)cc1S(=O)(=O)O)CCC4)CCCN3CCCC(=O)O [Compound 94] | 693^b nm | 670^b nm | –
C[Si]1(C)c2cc3c(cc2C(NCCCC(=O)O)=c2cc4c(cc21)=[N+](Cc1ccc(S(=O)(=O)O)cc1S(=O)(=O)O)CCC4)CCCN3Cc1ccc(S(=O)(=O)O)cc1S(=O)(=O)O [Compound 95] | 661^b nm | 489^b nm | –
CC1(C)C=C(CS(=O)(=O)O)c2cc3c(cc2N1CCS(=O)(=O)O)[Si](C)(C)c1cc2c(cc1=C3NC(CCS(=O)(=O)O)C(=O)O)C(CS(=O)(=O)O)=CC(C)(C)[N+]=2CCS(=O)(=O)O (stereo not shown) [Compound 96] | 695^b nm | 518^b nm | –
CC1(C)CC(CS(=O)(=O)O)c2cc3c(cc2=[N+]1CCCC(=O)O)Oc1cc(N(Cc2ccc(S(=O)(=O)O)cc2S(=O)(=O)O)Cc2ccc(S(=O)(=O)O)cc2S(=O)(=O)O)ccc1N=3 (stereo not shown) [Compound 97] | 667^b nm | 649^b nm | –
CC1(C)CC(CS(=O)(=O)O)c2cc3c(cc2=[N+]1CCCC(=O)O)Oc1cc2c(cc1N=3)CCCN2Cc1ccc(S(=O)(=O)O)cc1S(=O)(=O)O (stereo not shown) [Compound 98] | 682^b nm | 664^b nm | –
CC1(C)C=C(CS(=O)(=O)O)c2cc3c(cc2=[N+]1CCCC(=O)O)Oc1cc2c(cc1N=3)CCCN2Cc1ccc(S(=O)(=O)O)cc1S(=O)(=O)O [Compound 99] | 700^b nm | 682^b nm | –

SMILES | λfl ([2]; solvent PBS pH 7.4) | λabs ([1]; solvent PBS pH 7.4) | also measured
CC1(C)C=C(CS(=O)(=O)O)c2cc3c(cc2N1Cc1ccc(S(=O)(=O)O)cc1S(=O)(=O)O)Oc1cc2c(cc1=N3)C(CS(=O)(=O)O)=CC(C)(C)[N+]=2CCCC(=O)O [Compound 100] | 718^b nm | 701^b nm | –
CC1(C)CC(CS(=O)(=O)O)c2cc3c(cc2=[N+]1Cc1ccc(S(=O)(=O)O)cc1S(=O)(=O)O)Oc1cc(N)c2cc(S(=O)(=O)O)ccc2c1N=3 (stereo not shown) [Compound 101] | 678^b nm | 647^b nm | –
CC1(C)c2cc3c(cc2N=c2cc4c(cc21)=[N+](CCCC(=O)O)C(C)(C)CC4CS(=O)(=O)O)CCCN3Cc1ccc(S(=O)(=O)O)cc1S(=O)(=O)O (stereo not shown) [Compound 102] | 742^b nm | 721^b nm | –
CC1(C)c2cc3c(cc2N=c2cc4c(cc21)=[N+](CCCC(=O)O)C(C)(C)C=C4CS(=O)(=O)O)CCCN3Cc1ccc(S(=O)(=O)O)cc1S(=O)(=O)O [Compound 103] | 761^b nm | 740^b nm | –
CC1(C)c2cc3c(cc2N=c2cc4c(cc21)=[N+](CCCC(=O)O)C(C)(C)C=C4CS(=O)(=O)O)C(CS(=O)(=O)O)=CC(C)(C)N3Cc1ccc(S(=O)(=O)O)cc1S(=O)(=O)O [Compound 104] | 778^b nm | 758^b nm | –
Cc1cc(=O)[nH]c2cc(NCS(=O)(=O)O)ccc12 [Compound 105] | 413 nm | 349 nm | λabs ([1]; solvent ethanol): 355 nm; λfl ([2]; solvent ethanol): 406 nm
Cc1cc(=O)n(CC(=O)O)c2cc(NCS(=O)(=O)O)ccc12 [Compound 106] | 410^b nm | 350^b nm | –
Cc1cc(=O)n(CC(=O)O)c2cc(NCc3ccc(S(=O)(=O)O)cc3S(=O)(=O)O)ccc12 [Compound 107] | 413^b nm | 351^b nm | –
Cc1cc(=O)n(CC(=O)O)c2cc(NCS(=O)(=O)O)c(S(=O)(=O)O)cc12 [Compound 108] | 411^b nm | 348^b nm | –
Cc1cc(=O)n(CC(=O)O)c2cc(NCc3ccc(S(=O)(=O)O)cc3S(=O)(=O)O)c(S(=O)(=O)O)cc12 [Compound 109] | 418^b nm | 349^b nm | –
Cc1c(CC(=O)O)c(=O)oc2cc(NCS(=O)(=O)O)ccc12 [Compound 110] | 353^b nm | 354^b nm | –
Cc1c(CC(=O)O)c(=O)oc2cc(NCc3ccc(S(=O)(=O)O)cc3S(=O)(=O)O)c(S(=O)(=O)O)cc12 [Compound 111] | 449^b nm | 348^b nm | –
Cc1c(CC(=O)O)c(=O)oc2cc(Nc3nc(Cl)nc(NCCS(=O)(=O)O)n3)ccc12 [Compound 112] | 416^b nm | 338^b nm | –
Cc1cc(=O)n(CC(=O)O)c2cc(Nc3nc(Cl)nc(NCCS(=O)(=O)O)n3)ccc12 [Compound 114] | 385^b nm | 338^b nm | –
Cc1cc(=O)n(CC(=O)O)c2cc(Nc3nc(NCCS(=O)(=O)O)nc(NCCS(=O)(=O)O)n3)ccc12 [Compound 115] | 383^b nm | 335^b nm | –
